Assay results taken from PMC6266789 (Viruses, 2018).

Tested on: NA of pH1N1 influenza virus recovered from lungs of IS mice
Type: biochemical, influenza A(H1N1)pdm09

Q: How did the “oseltamivir resistance phenotype associated with H275Y by NAI assay” value turn out when `CCOC(=O)C1=C[C@@H](OC(CC)CC)[C@H](NC(C)=O)[C@@H](N)C1` [Oseltamivir, oseltamivir] was run?
A: not detected
